Source: patent US20260374754A1, “N-((ISOQUINOLIN-6-YL)METHYL)-1H-PYRAZOLE-4-CARBOXAMIDE DERIVATIVES AS PLASMA KALLIKREIN INHIBITORS FOR THE TREATMENT OF HEREDITARY ANGIODEMA” (Takeda Pharmaceutical Company Limited, priority 2022, published 2026)

target: human activated kallikrein enzyme (Homo sapiens, UniProt P03952); experiment: Inhibition of human activated plasma kallikrein, fluorogenic PFR-AMC substrate, 500 pM enzyme format; assay type: biochemical; conditions: 500 pM activated kallikrein; 300 μM PFR-AMC; 30 min preincubation; 10 min room temperature; pH 7.5; read-out: Primary Dose Response Assay: Average EC50
Sequence (P03952 391-638 limits assumed): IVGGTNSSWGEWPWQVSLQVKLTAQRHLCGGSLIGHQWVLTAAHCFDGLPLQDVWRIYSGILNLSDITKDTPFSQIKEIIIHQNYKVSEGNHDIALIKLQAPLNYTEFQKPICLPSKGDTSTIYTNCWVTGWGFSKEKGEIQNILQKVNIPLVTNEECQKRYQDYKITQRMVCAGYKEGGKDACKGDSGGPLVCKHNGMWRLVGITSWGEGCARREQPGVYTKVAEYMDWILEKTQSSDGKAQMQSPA
Sequence (P03952 20-390 partner limits assumed): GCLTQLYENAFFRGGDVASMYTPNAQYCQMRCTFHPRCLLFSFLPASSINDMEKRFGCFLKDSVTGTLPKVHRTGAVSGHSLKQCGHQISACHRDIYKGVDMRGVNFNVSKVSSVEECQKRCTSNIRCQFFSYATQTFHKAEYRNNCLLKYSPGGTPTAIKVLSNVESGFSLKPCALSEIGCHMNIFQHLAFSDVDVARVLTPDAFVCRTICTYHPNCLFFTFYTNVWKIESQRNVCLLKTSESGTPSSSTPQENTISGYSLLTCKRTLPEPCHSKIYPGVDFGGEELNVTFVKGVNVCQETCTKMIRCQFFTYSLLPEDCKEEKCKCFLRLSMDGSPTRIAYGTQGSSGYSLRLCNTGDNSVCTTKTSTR
Procedure, shortened: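 Using fluorogenic PFR-AMC at 300 μM, cleavage by 500 pM human activated kallikrein ran 10 min at room temperature, read at 460 nm emission (380 nm excitation). Enzyme and compounds were first preincubated 30 min in 20 mM Tris pH 7.5, 150 mM NaCl, 1 mM EDTA, 0.1% PEG-400, 0.1% Triton X-100.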

| EC50 [nM] | Compound |
| --- | --- |
| < 1 | CCc1cccc2nc(Cn3cc(C(=O)NCc4c(C)cc5c(N)nccc5c4C)cn3)cn12 [Example 140, N-((1-amino-5,7-dimethylisoquinolin-6-yl)methyl)-1-((5-ethylimidazo[1,2-a]pyridin-2-yl)methyl)-1H-pyrazole-4-carboxamide] |
| < 1 | CCc1c(Cl)ccc2nc(Cn3cc(C(=O)NCc4c(C)cc5c(N)nccc5c4C)cn3)cn12 [Example 141, N-((1-amino-5,7-dimethylisoquinolin-6-yl)methyl)-1-((6-chloro-5-ethylimidazo[1,2-a]pyridin-2-yl)methyl)-1H-pyrazole-4-carboxamide] |
| < 1 | Cc1cc2c(N)nccc2c(C)c1CNC(=O)c1cnn(Cc2cn3c(F)c(C4CC4)ccc3n2)c1 [Example 142, N-((1-amino-5,7-dimethylisoquinolin-6-yl)methyl)-1-((6-cyclopropyl-5-fluoroimidazo[1,2-a]pyridin-2-yl)methyl)-1H-pyrazole-4-carboxamide] |
| < 1 | Cc1cc2c(N)nccc2c(C)c1CNC(=O)c1cnn(Cc2cn3c(C#N)cccc3n2)c1 [Example 143, N-((1-amino-5,7-dimethylisoquinolin-6-yl)methyl)-1-((5-cyanoimidazo[1,2-a]pyridin-2-yl)methyl)-1H-pyrazole-4-carboxamide] |
| < 1 | COc1cccc2nc(Cn3cc(C(=O)NCc4c(C)cc5c(N)nccc5c4C)cn3)cn12 [Example 144, N-((1-amino-5,7-dimethylisoquinolin-6-yl)methyl)-1-((5-methoxyimidazo[1,2-a]pyridin-2-yl)methyl)-1H-pyrazole-4-carboxamide] |
| < 1 | Cc1cc2c(N)nccc2c(C)c1CNC(=O)c1cnn(Cc2cn3c(C)c(Br)ccc3n2)c1 [Example 145, N-((1-amino-5,7-dimethylisoquinolin-6-yl)methyl)-1-((6-bromo-5-methylimidazo[1,2-a]pyridin-2-yl)methyl)-1H-pyrazole-4-carboxamide] |
| < 1 | Cc1cc2nc(Cn3cc(C(=O)NCc4c(C)cc5c(N)nccc5c4C)cn3)cn2cc1C1CC1 [Example 146, N-((1-amino-5,7-dimethylisoquinolin-6-yl)methyl)-1-((6-cyclopropyl-7-methylimidazo[1,2-a]pyridin-2-yl)methyl)-1H-pyrazole-4-carboxamide] |
| < 1 | Cc1cc2c(N)nccc2c(C)c1CNC(=O)c1cnn(Cc2cn3cc(C4CC4)c(Cl)cc3n2)c1 [Example 147, N-((1-amino-5,7-dimethylisoquinolin-6-yl)methyl)-1-((7-chloro-6-cyclopropylimidazo[1,2-a]pyridin-2-yl)methyl)-1H-pyrazole-4-carboxamide] |
| < 1 | Cc1cc2c(N)nccc2c(C)c1CNC(=O)c1cnn(Cc2cn3c(Cl)c(C4CC4)ccc3n2)c1 [Example 148, N-((1-amino-5,7-dimethylisoquinolin-6-yl)methyl)-1-((5-chloro-6-cyclopropylimidazo[1,2-a]pyridin-2-yl)methyl)-1H-pyrazole-4-carboxamide] |
| < 1 | Cc1cc2c(N)nccc2c(C)c1CNC(=O)c1cnn(Cc2cn3cc(Br)c(Cl)cc3n2)c1 [Example 149, N-((1-amino-5,7-dimethylisoquinolin-6-yl)methyl)-1-((6-bromo-7-chloroimidazo[1,2-a]pyridin-2-yl)methyl)-1H-pyrazole-4-carboxamide] |
| 10 to 100 | Cc1cc2c(N)nccc2c(C)c1CNC(=O)c1cnn(Cc2ccc3ncccc3n2)c1 [Example 150, 1-((1,5-naphthyridin-2-yl)methyl)-N-((1-amino-5,7-dimethylisoquinolin-6-yl)methyl)-1H-pyrazole-4-carboxamide] |
| < 1 | Cc1cc2c(N)nccc2c(C)c1CNC(=O)c1cnn(Cc2ccc(CC(=O)N(C)C)c(Cl)c2)c1 [Example 151, N-((1-amino-5,7-dimethylisoquinolin-6-yl)methyl)-1-(3-chloro-4-(2-(dimethylamino)-2-oxoethyl)benzyl)-1H-pyrazole-4-carboxamide] |
| < 1 | Cc1cc2c(N)nccc2c(C)c1CNC(=O)c1cnn(Cc2ccc(CC(=O)N(C)C)c(C(F)(F)F)c2)c1 [Example 152, N-((1-amino-5,7-dimethylisoquinolin-6-yl)methyl)-1-(4-(2-(dimethylamino)-2-oxoethyl)-3-(trifluoromethyl)benzyl)-1H-pyrazole-4-carboxamide] |
| 1 to 10 | Cc1ccc2ccc(Cn3cc(C(=O)NCc4c(C)cc5c(N)nccc5c4C)cn3)cc2c1 [Example 153, N-((1-amino-5,7-dimethylisoquinolin-6-yl)methyl)-1-((7-methylnaphthalen-2-yl)methyl)-1H-pyrazole-4-carboxamide] |
| 100 to 1000 | Cc1cc2c(N)nccc2c(C)c1CNC(=O)c1cnn(CC(=O)Nc2ccccc2)c1 [Example 154, N-((1-amino-5,7-dimethylisoquinolin-6-yl)methyl)-1-(2-oxo-2-(phenylamino)ethyl)-1H-pyrazole-4-carboxamide] |
| 1 to 10 | Cc1cc2c(N)nccc2c(C)c1CNC(=O)c1cnn(Cc2ccc3ccc(Br)cc3n2)c1 [Example 156, N-((1-amino-5,7-dimethylisoquinolin-6-yl)methyl)-1-((7-bromoquinolin-2-yl)methyl)-1H-pyrazole-4-carboxamide] |
| 1 to 10 | Cc1cc2c(N)nccc2c(C)c1CNC(=O)c1cnn(Cc2ccc3cc(Cl)ccc3n2)c1 [Example 157, N-((1-amino-5,7-dimethylisoquinolin-6-yl)methyl)-1-((6-chloroquinolin-2-yl)methyl)-1H-pyrazole-4-carboxamide] |
| 1 to 10 | Cc1cc2c(N)nccc2c(C)c1CNC(=O)c1cnn(Cc2ccc3cc(F)ccc3n2)c1 [Example 158, N-((1-amino-5,7-dimethylisoquinolin-6-yl)methyl)-1-((6-fluoroquinolin-2-yl)methyl)-1H-pyrazole-4-carboxamide] |
| 10 to 100 | Cc1cc2c(N)nccc2c(C)c1CNC(=O)c1cnn(Cc2ccc3cccc(Br)c3n2)c1 [Example 159, N-((1-amino-5,7-dimethylisoquinolin-6-yl)methyl)-1-((8-bromoquinolin-2-yl)methyl)-1H-pyrazole-4-carboxamide] |
| 100 to 1000 | Cc1cc2c(N)nccc2c(C)c1CNC(=O)c1cnn(Cc2ccccc2)c1 [Example 160, N-((1-amino-5,7-dimethylisoquinolin-6-yl)methyl)-1-benzyl-1H-pyrazole-4-carboxamide] |
| 10 to 100 | COCc1c(C(=O)NCc2c(C)cc3c(N)nccc3c2C)cnn1Cc1cnc(N2CCCC2)nc1 [Example 161, N-((1-amino-5,7-dimethylisoquinolin-6-yl)methyl)-5-(methoxymethyl)-1-((2-(pyrrolidin-1-yl)pyrimidin-5-yl)methyl)-1H-pyrazole-4-carboxamide] |
| < 1 | COCc1nn(Cc2cnc(N3CCCC3)nc2)cc1C(=O)NCc1c(C)cc2c(N)nccc2c1C [Example 162, N-((1-amino-5,7-dimethylisoquinolin-6-yl)methyl)-3-(methoxymethyl)-1-((2-(pyrrolidin-1-y1)pyrimidin-5-yl)methyl)-1H-pyrazole-4-carboxamide] |
| 1 to 10 | Cc1cc2c(N)nccc2c(C)c1CNC(=O)c1cnn(Cc2ccc3ncc(O)cc3c2)c1 [Example 164, N-((1-amino-5,7-dimethylisoquinolin-6-yl)methyl)-1-((3-hydroxyquinolin-6-yl)methyl)-1H-pyrazole-4-carboxamide] |
| < 1 | Cc1cc2c(N)nccc2c(C)c1CNC(=O)c1cnn(Cc2ccc(Cc3ccccn3)cc2)c1 [Example 165, N-((1-amino-5,7-dimethylisoquinolin-6-y1)methyl)-1-(4-(pyridin-2-ylmethyl)benzyl)-1H-pyrazole-4-carboxamide] |
| < 1 | Cc1cc2c(N)nccc2c(C)c1CNC(=O)c1cnn(Cc2ccc(Cc3nccs3)cc2)c1 [Example 166, N-((1-amino-5,7-dimethylisoquinolin-6-yl)methyl)-1-(4-(thiazol-2-ylmethyl)benzyl)-1H-pyrazole-4-carboxamide] |
| < 1 | Cc1cc2c(N)nccc2c(C)c1CNC(=O)c1cnn(Cc2ccc(Cc3cccn4ccnc34)cc2)c1 [Example 167, N-((1-amino-5,7-dimethylisoquinolin-6-yl)methyl)-1-(4-(imidazo[1,2-a]pyridin-8-ylmethyl)benzyl)-1H-pyrazole-4-carboxamide] |
| 1 to 10 | Cc1cc2c(N)nccc2c(C)c1CNC(=O)c1cnn(Cc2ccc(Cc3ncccn3)cc2)c1 [Example 168, N-((1-amino-5,7-dimethylisoquinolin-6-yl)methyl)-1-(4-(pyrimidin-2-ylmethyl)benzyl)-1H-pyrazole-4-carboxamide] |
| < 1 | Cc1cc(Cn2cc(C(=O)NCc3c(C)cc4c(N)nccc4c3C)cn2)cc(C)c1Cc1ccccn1 [Example 169, N-((1-amino-5,7-dimethylisoquinolin-6-yl)methyl)-1-(3,5-dimethyl-4-(pyridin-2-ylmethyl)benzyl)-1H-pyrazole-4-carboxamide] |
| < 1 | Cc1cc2c(N)nccc2c(C)c1CNC(=O)c1cnn(Cc2cn3cc(C4CC4)cc(Cc4nnco4)c3n2)c1 [Example 172, 1-((8-((1,3,4-oxadiazol-2-yl)methyl)-6-cyclopropylimidazo[1,2-a]pyridin-2-y1)methyl)-N-((1-amino-5,7-dimethylisoquinolin-6-y1)methyl)-1H-pyrazole-4-carboxamide] |
| 10 to 100 | CCc1cc2c(N)nccc2c(C)c1CNC(=O)c1cnn(Cc2ccccc2)c1 [Example 173, N-((1-amino-7-ethyl-5-methylisoquinolin-6-yl)methyl)-1-benzyl-1H-pyrazole-4-carboxamide] |

same assay, conditions: Primary Dose Response Assay: Average EC50, 500 pM activated kallikrein; 300 μM PFR-AMC; 30 min preincubation; 10 min room temperature; pH 7.5

| EC50 [nM] | Compound |
| --- | --- |
| > 1000 | Cc1c(CNC(=O)c2cnn(Cc3ccccc3)c2)c(C)c2ccnc(N)c2c1C [Example 170, N-((1-amino-5,7,8-trimethylisoquinolin-6-yl)methyl)-1-benzyl-1H-pyrazole-4-carboxamide] |
